Experimental data from patent US20210046160A1 (Synthorx, Inc., priority 2019, published 2021).
Values joined by “and” are separate entries in the source; they are usually repeats but may differ in a detail not shown here. Identical values can stand only once.

Experiments:
[1] = MTD / toxicology study E3826-U1802 in naïve Balb/c mice (hematology, histopathology, organ weight, cytokines); type: in vivo; conditions: mouse, in vivo
Protocol: A dose ranging study of P65_30kD was conducted in naïve female Balb/c mice at Crown Biosciences, Inc. (San Diego, Calif.). […] Blood samples were drawn via sub mandibular vein at 8 time points (0.25, 1, 4, 12, 24, 34, 48 & 72 h).
A major of toxicity associated with high-dose aldesleukin is vascular leak syndrome and associated Cytokine Release Syndrome (CRS). […] The analysis performed was hematology, histopathology, organ weight, and cytokine analyses.

[2] = system: pSTAT5 and proliferation in CD8+ T, NK and Treg cells; test: Pharmacodynamics in peripheral blood compartment (pSTAT5, Ki-67, cell counts), Example 5; type: in vivo, C57BL/6 mice; conditions: mice
Source text: Terminal blood samples were collected via cardiac puncture at the points indicated. […] Plasma and blood cells (in both studies) and tumors in study E3826-U1803 were collected for PK and PD analyses.
STAT5 phosphorylation and induction of cell proliferation (the early molecular marker Ki-67 and cell counts) was used as pharmacodynamics readouts to assess the pharmacological profile of P65_30kD relative to its pharmacokinetics.

CT-26 colon tumors = test: Efficacy in CT-26 tumor-bearing Balb/c mice, Studies 1-3 (tumor growth inhibition, survival); type: in vivo; conditions: for median survival time: Compound A 6 mg/kg QWx3, anti-PD-1 antibody 10 mg/kg BIWx3, or both
Source text: Studies of Compound A as monotherapy and in combination with an anti-PD-1 antibody were undertaken in Balb/c female mice. […] Balb/c female mice, 7-8 weeks of age, with an average weight of 18 to 22 g were purchased from Taconic Biosciences by HD Biosciences for study 3. Cryogenically preserved vials of CT-26 colon cancer cells were purchased from American Tissue Type Collection (ATCC, Manassas, Va.). Cells were thawed and cultured according to the manufacturer's protocol. On the day of tumor cell inoculation, cells were washed in serum-free media, counted, and resuspended in cold serum-free media at a concentration of 250,000 (studies 1 and 2) or 300,000 (study 3) viable cells per 0.1 mL. The CT-26 cells (0.1 mL) were injected subcutaneously into the flanks of individual mice and tumors were allowed to grow.
For studies 1 and 2 in which a combination of Compound A and an anti-PD-1 antibody were used, the antibody used was anti-mouse PD-1 (BioXcell; RMP1-14) and the control antibody was IgG1 isotype antibody (BioXcell; catalog #BP0089, lot #2A3). For study 3 in which an anti-PD-1 antibody was used, the antibody used was anti-mouse PD-1 (BioXcell; catalog #BP0146, RMP1-14, lot #695318A1) and the control antibody was IgG1 isotype antibody (BioXcell; catalog #BP0089, lot #2A3).
Lyophilized Compound A was reconstituted into 10 mg/mL stock with 0.1 M acetic acid. It was then further diluted into working concentration with 1× phosphate buffered saline (PBS). The compound was reconstituted and diluted within an hour of dosing of animals and kept on ice until dosing. The lyophilized compound was stored at −80° C. before use. Vehicle was stored at 4° C.
Three separate efficacy studies were performed using CT-26 tumor-bearing Balb/c mice. The design for study 1, which evaluated Compound A for dose-dependent efficacy as a single agent, is outlined in Table 19. The designs for studies 2 and 3, which evaluated the efficacy of Compound A in combination with an anti-PD-1 antibody, are outlined in Table 20 and Table 21, respectively. The route of administration for Compound A was intravenous (IV). IV dosing in the mice was done via the tail vein. The antibody was administered intraperitoneally (IP). All agents were administered based on the individual body weight of each animal obtained immediately prior to each dosing. Details on the dosing regimen are described below.
In Study 1, CT-26 tumor-bearing mice were treated with vehicle IV once a week for a total of 3 doses (QWx3) or Compound A at 0.3, 1, or 3 mg/kg IV, either once a week for a total of three doses (QWx3), or once every 2 weeks for a total of 2 doses (Q2Wx2), starting on Day 4 following tumor cell inoculation when the average tumor volume was ˜80 mm^3.
In Study 2, CT-26 tumor-bearing mice were treated on Day 5 following tumor cell inoculation when the average tumor volume was ˜80 mm^3. Dosing was with vehicle IV QWx3+ IgG isotype control IP or Compound A at 3 or 6 mg/kg IV, on a QWx3 dosing schedule, or anti-PD-1 antibody at 10 mg/kg IP, or the combination of Compound A at 6 mg/kg IV QWx3+ anti-PD-1 antibody at 10 mg/kg IP. The IP dosing of the antibody in all cases was twice a week for 3 weeks with a total of 6 doses (BIWx3).
In Study 3, CT-26 tumor-bearing mice were treated on Day 7 following tumor cell inoculation when the average tumor volume was ˜70 mm3. Dosing was with vehicle IV QWx3+ IgG isotype control IP BIWx3; or Compound A at 1, 3, 6, or 9 mg/kg IV on a QWx3 dosing schedule, or anti-PD-1 antibody at 10 mg/kg IP BIWx3; or the combination of Compound A at 1, 3, or 6 mg/kg IV QWx3+ anti-PD-1 antibody at 10 mg/kg IP BIWx3.
Animals were observed daily for clinical signs.
Tumor growth was monitored using digital caliper measurements every 3 to 4 days until the end of the study. Tumor volume was calculated as Width^2×Length/2, where width is the smallest dimension and length is the largest. Raw tumor volume data are presented in the study reports. […]

P65_30kD: SEQ ID NO: 25: IL-2 (SEQ ID NO: 4) with P65 replaced by AzK click-conjugated to methoxy linear 30 kDa PEG [Compound P65_30kD]
systemic levels of IFNγ [1]: transient elevation
proliferative responses of CD8+ effector T cells and NK cells (not Tregs), time window [2]: 72 to 120 h
persistent elevation of pSTAT5 in NK and CD8+ T cells, up to ([2]; single IV dose): up to 72 h
persistent elevation of pSTAT5 in Tregs, up to ([2]; single IV dose): up to 24 h
median survival time (CT-26 colon tumors; Study 2): 27 days
animals surviving (CT-26 colon tumors; Study 3, Compound A 3 mg/kg, anti-PD-1 antibody 10 mg/kg, or both, day printed as 'Compound A days'): 0 of 14 animals
median survival time (CT-26 colon tumors; Study 3): 35 days
animals surviving tumor-free (CT-26 colon tumors; Study 3, Compound A 6 mg/kg, anti-PD-1 antibody 10 mg/kg, or both, day printed as 'Compound A days'): 0 of 14 animals
animals found dead following >15% body weight loss due to treatment (CT-26 colon tumors; Study 3, Compound A 9 mg/kg IV QWx3): 2 of the 14 animals
% TGI (Relative to Vehicle Control) (CT-26 colon tumors; Study #1, Compound A 0.3 mg/kg IV Q2Wx2, Day 15): 20%
% TGI (Relative to Vehicle Control) (CT-26 colon tumors; Study #1, Compound A 0.3 mg/kg IV QWx3, Day 15, listed as Compound A, 0.3 mg/kg): 19%
% TGI (Relative to Vehicle Control) (CT-26 colon tumors; Study #1, Compound A 1 mg/kg IV Q2Wx2, Day 15): 27%
% TGI (Relative to Vehicle Control) (CT-26 colon tumors; Study #1, Compound A 1 mg/kg IV QWx3, Day 15, listed as Compound A, 1 mg/kg): 31%
% TGI (Relative to Vehicle Control) (CT-26 colon tumors; Study #1, Compound A 3 mg/kg IV Q2Wx2, Day 15, listed as Compound A, 3 mg/kg): 45%
% TGI (Relative to Vehicle Control) (CT-26 colon tumors; Study #1, Compound A 3 mg/kg IV QWx3, Day 15, listed as Compound A, 3 mg/kg): 52% and 51* %
% TGI (Relative to Vehicle Control) (CT-26 colon tumors; Study #2, Compound A 3 mg/kg IV QWx3, listed as Compound A, 3 mg/kg): 56.3% and 56%
% TGI (Relative to Vehicle Control) (CT-26 colon tumors; Study #2, Compound A 6 mg/kg IV QWx3, listed as Compound A, 6 mg/kg): 35.6% and 36* %
% TGI (Relative to Vehicle Control) (CT-26 colon tumors; Study #3, Compound A 1 mg/kg IV QWx3, listed as Compound A, 1 mg/kg): 29.8% and 30%
% TGI (Relative to Vehicle Control) (CT-26 colon tumors; Study #3, Compound A 3 mg/kg IV QWx3, listed as Compound A, 3 mg/kg): 58.8% and 59*** %
% TGI (Relative to Vehicle Control) (CT-26 colon tumors; Study #3, Compound A 6 mg/kg IV QWx3, listed as Compound A, 6 mg/kg): 86.2% and 86*** %
% TGI (Relative to Vehicle Control) (CT-26 colon tumors; Study #3, Compound A 9 mg/kg IV QWx3, listed as Compound A, 9 mg/kg): 84.8% and 85*** %
